# Results as given in patent US20240293558A1, “KRAS INHIBITOR CONJUGATES” (Erasca, Inc., priority 2021, published 2024).
# pIC50: −log10 of the molar value.
# Assays:
# KRAS (WT) = target: T1, KRAS (WT) (Homo sapiens, UniProt P01116); assay: In-vitro RAS-RAF binding assay (RRB), HTRF/FRET; type: biochemical; conditions: Table 2, average of multiple runs of each compound; read-out: Inhibition of RAS-RAF Binding (in-vitro) KRAS (WT) IC50
# T1 construct: Biotinylated KRAS protein amino acids 1-169 (produced at Erasca); made in house
# Method in brief: (§1)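 Biotinylated KRAS 1-169 (streptavidin-terbium donor, 30 nM) and GST-cRAF RBD (anti-GST d2 acceptor, 30 nM) in HEPES pH 7.5, NaCl, MgCl2, DTT buffer. After compound incubation, SOS1 catalytic domain plus GTPgS drive 60 min nucleotide exchange. HTRF FRET read at equilibrium, in duplicate.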
# KRAS G12D = KRAS G12D (Homo sapiens, UniProt P01116, G12D); assay: In-vitro RAS-RAF binding assay (RRB), HTRF/FRET; type: biochemical; set-up: Biotinylated KRAS protein amino acids 1-169 (produced at Erasca); made in house; conditions: Table 2, average of multiple runs of each compound; read-out: Inhibition of RAS-RAF Binding (in-vitro) KRAS (G12D) IC50
# Method in brief: as §1
# T1 sequence (P01116 1-169 isoform P01116-2): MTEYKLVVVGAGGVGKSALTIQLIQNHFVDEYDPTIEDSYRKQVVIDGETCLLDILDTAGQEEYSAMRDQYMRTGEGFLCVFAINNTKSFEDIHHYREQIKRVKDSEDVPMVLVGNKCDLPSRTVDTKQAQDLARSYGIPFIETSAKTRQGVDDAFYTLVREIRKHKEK
# Sequence of KRAS G12D (P01116 1-169 isoform P01116-2 G12D): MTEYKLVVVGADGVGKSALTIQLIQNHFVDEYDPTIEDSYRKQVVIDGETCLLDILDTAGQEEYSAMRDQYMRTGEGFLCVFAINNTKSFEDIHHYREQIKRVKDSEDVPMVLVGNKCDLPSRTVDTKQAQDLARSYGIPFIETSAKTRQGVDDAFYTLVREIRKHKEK
pIC50 (KRAS (WT)),pIC50 (KRAS G12D),Compound
6.91,8.05,"C#Cc1c(F)ccc2cc(O)cc(-c3ncc4c(N5CC6CCC(C5)N6)nc(OC[C@@H]5CCCN5CCCOCC(=O)N[C@H](C(=O)N5C[C@H](O)C[C@H]5C(=O)N[C@@H](C)c5ccc(-c6c(F)ccc(F)c6F)cc5)C(C)(C)C)nc4c3F)c12 [Example 53, (2S,4R)-1-((2S)-2-(2-(3-((2S)-2-(((4-(3,8-diazabicyclo[3.2.1]octan-3-yl)-7-(8-ethynyl-7-fluoro-3-hydroxynaphthalen-1-yl)-8-fluoropyrido[4,3-d]pyrimidin-2-yl)oxy)methyl)pyrrolidin-1-yl)propoxy)acetamido)-3,3-dimethylbutanoyl)-4-hydroxy-N-((S)-1-(2′,3′,6′-trifluoro-[1,1′-biphenyl]-4-yl)ethyl)pyrrolidine-2-carboxamide]"
7.28,8.02,"C#Cc1c(F)ccc2cc(O)cc(-c3ncc4c(N5CC6CCC(C5)N6)nc(OC[C@@H]5CCCN5CCCOCCC(=O)N[C@H](C(=O)N5C[C@H](O)C[C@H]5C(=O)N[C@@H](C)c5ccc(-c6c(F)c(F)cc(F)c6F)cc5)C(C)(C)C)nc4c3F)c12 [Example 54, (2S,4R)-1-((2S)-2-(3-(3-((2S)-2-(((4-(3,8-diazabicyclo[3.2.1]octan-3-yl)-7-(8-ethynyl-7-fluoro-3-hydroxynaphthalen-1-yl)-8-fluoropyrido[4,3-d]pyrimidin-2-yl)oxy)methyl)pyrrolidin-1-yl)propoxy)propanamido)-3,3-dimethylbutanoyl)-4-hydroxy-N-((S)-1-(2′,3′,5′,6′-tetrafluoro-[1,1′-biphenyl]-4-yl)ethyl)pyrrolidine-2-carboxamide]"
7.17,8.01,"C#Cc1c(F)ccc2cc(O)cc(-c3ncc4c(N5CC6CCC(C5)N6)nc(OC[C@@H]5CCCN5CCCOCCC(=O)N[C@H](C(=O)N5C[C@H](O)C[C@H]5C(=O)N[C@@H](C)c5ccc(-c6ccc(F)c(F)c6F)cc5)C(C)(C)C)nc4c3F)c12 [Example 55, (2S,4R)-1-((2S)-2-(3-(3-((2S)-2-(((4-(3,8-diazabicyclo[3.2.1]octan-3-yl)-7-(8-ethynyl-7-fluoro-3-hydroxynaphthalen-1-yl)-8-fluoropyrido[4,3-d]pyrimidin-2-yl)oxy)methyl)pyrrolidin-1-yl)propoxy)propanamido)-3,3-dimethylbutanoyl)-4-hydroxy-N-((S)-1-(2′,3′,4′-trifluoro-[1,1′-biphenyl]-4-yl)ethyl)pyrrolidine-2-carboxamide]"
7.18,8.03,"C#Cc1c(F)ccc2cc(O)cc(-c3ncc4c(N5CC6CCC(C5)N6)nc(OC[C@@H]5CCCN5CCCOCCC(=O)N[C@H](C(=O)N5C[C@H](O)C[C@H]5C(=O)N[C@@H](C)c5ccc(-c6c(C)ccc(C)c6C)cc5)C(C)(C)C)nc4c3F)c12 [Example 56, (2S,4R)-1-((2S)-2-(3-(3-((2S)-2-(((4-(3,8-diazabicyclo[3.2.1]octan-3-yl)-7-(8-ethynyl-7-fluoro-3-hydroxynaphthalen-1-yl)-8-fluoropyrido[4,3-d]pyrimidin-2-yl)oxy)methyl)pyrrolidin-1-yl)propoxy)propanamido)-3,3-dimethylbutanoyl)-4-hydroxy-N-((S)-1-(2′,3′,6′-trimethyl-[1,1′-biphenyl]-4-yl)ethyl)pyrrolidine-2-carboxamide]"
6.93,7.88,"C#Cc1c(F)ccc2cc(O)cc(-c3ncc4c(N5CC6CCC(C5)N6)nc(OC[C@@H]5CCCN5CCCOCCC(=O)N[C@H](C(=O)N5C[C@H](O)C[C@H]5C(=O)N[C@@H](C)c5ccc(-c6c(Cl)ccc(Cl)c6Cl)cc5)C(C)(C)C)nc4c3F)c12 [Example 57, (2S,4R)-1-((2S)-2-(3-(3-((2S)-2-(((4-(3,8-diazabicyclo[3.2.1]octan-3-yl)-7-(8-ethynyl-7-fluoro-3-hydroxynaphthalen-1-yl)-8-fluoropyrido[4,3-d]pyrimidin-2-yl)oxy)methyl)pyrrolidin-1-yl)propoxy)propanamido)-3,3-dimethylbutanoyl)-4-hydroxy-N-((S)-1-(2′,3′,6′-trichloro-[1,1′-biphenyl]-4-yl)ethyl)pyrrolidine-2-carboxamide]"
7.18,8.02,"C#Cc1c(F)ccc2cc(O)cc(-c3ncc4c(N5CC6CCC(C5)N6)nc(OC[C@@H]5CCCN5CCCOCCC(=O)N[C@H](C(=O)N5C[C@H](O)C[C@H]5C(=O)N[C@@H](C)c5ccc(-c6cc(F)cc(F)c6F)cc5)C(C)(C)C)nc4c3F)c12 [Example 58, (2S,4R)-1-((2S)-2-(3-(3-((2S)-2-(((4-(3,8-diazabicyclo[3.2.1]octan-3-yl)-7-(8-ethynyl-7-fluoro-3-hydroxynaphthalen-1-yl)-8-fluoropyrido[4,3-d]pyrimidin-2-yl)oxy)methyl)pyrrolidin-1-yl)propoxy)propanamido)-3,3-dimethylbutanoyl)-4-hydroxy-N-((S)-1-(2′,3′,5′-trifluoro-[1,1′-biphenyl]-4-yl)ethyl)pyrrolidine-2-carboxamide]"
7.14,8.12,"C#Cc1c(F)ccc2cc(O)cc(-c3ncc4c(N5CC6CCC(C5)N6)nc(OC[C@@H]5CCCN5CCCOCCC(=O)N[C@H](C(=O)N5C[C@H](O)C[C@H]5C(=O)N[C@@H](C)c5ccc(-c6c(F)c(F)c(F)c(F)c6F)cc5)C(C)(C)C)nc4c3F)c12 [Example 59, (2S,4R)-1-((2S)-2-(3-(3-((2S)-2-(((4-(3,8-diazabicyclo[3.2.1]octan-3-yl)-7-(8-ethynyl-7-fluoro-3-hydroxynaphthalen-1-yl)-8-fluoropyrido[4,3-d]pyrimidin-2-yl)oxy)methyl)pyrrolidin-1-yl)propoxy)propanamido)-3,3-dimethylbutanoyl)-4-hydroxy-N-((S)-1-(2′,3′,4′,5′,6′-pentafluoro-[1,1′-biphenyl]-4-yl)ethyl)pyrrolidine-2-carboxamide]"
5.92,8.05,"C#Cc1c(F)ccc2cc(O)cc(-c3ncc4c(N5CC6CCC(C5)N6)nc(OCCN5CCC(C)(COc6cc([C@H](C(=O)N7C[C@H](O)C[C@H]7C(=O)N[C@@H](C)c7ccc(-c8c(F)cccc8F)cc7)C(C)C)on6)CC5)nc4c3F)c12 [Example 61, (2S,4R)-1-((2R)-2-(3-((1-(2-((4-(3,8-diazabicyclo[3.2.1]octan-3-yl)-7-(8-ethynyl-7-fluoro-3-hydroxynaphthalen-1-yl)-8-fluoropyrido[4,3-d]pyrimidin-2-yl)oxy)ethyl)-4-methylpiperidin-4-yl)methoxy)isoxazol-5-yl)-3-methylbutanoyl)-N-((S)-1-(2′,6′-difluoro-[1,1′-biphenyl]-4-yl)ethyl)-4-hydroxypyrrolidine-2-carboxamide]"
< 5.00,7.87,"C#Cc1c(F)ccc2cc(O)cc(-c3ncc4c(N5CC6CCC(C5)N6)nc(OCCN5CCC(F)(COc6cc([C@H](C(=O)N7C[C@H](O)C[C@H]7C(=O)N[C@@H](C)c7ccc(-c8c(F)cccc8F)cc7)C(C)C)on6)CC5)nc4c3F)c12 [Example 62, (2S,4R)-1-((2R)-2-(3-((1-(2-((4-(3,8-diazabicyclo[3.2.1]octan-3-yl)-7-(8-ethynyl-7-fluoro-3-hydroxynaphthalen-1-yl)-8-fluoropyrido[4,3-d]pyrimidin-2-yl)oxy)ethyl)-4-fluoropiperidin-4-yl)methoxy)isoxazol-5-yl)-3-methylbutanoyl)-N-((S)-1-(2′,6′-difluoro-[1,1′-biphenyl]-4-yl)ethyl)-4-hydroxypyrrolidine-2-carboxamide]"
5.08,7.97,"C#Cc1c(F)ccc2cc(O)cc(-c3ncc4c(N5CC6CCC(C5)N6)nc(OCCN5CCC(COc6cc([C@H](C(=O)N7C[C@H](O)C[C@H]7C(=O)N[C@@H](C)c7ccc(-c8c(F)cc(F)cc8F)cc7)C(C)C)on6)CC5)nc4c3F)c12 [Example 63, (2S,4R)-1-((2R)-2-(3-((1-(2-((4-(3,8-diazabicyclo[3.2.1]octan-3-yl)-7-(8-ethynyl-7-fluoro-3-hydroxynaphthalen-1-yl)-8-fluoropyrido[4,3-d]pyrimidin-2-yl)oxy)ethyl)piperidin-4-yl)methoxy)isoxazol-5-yl)-3-methylbutanoyl)-4-hydroxy-N-((S)-1-(2′,4′,6′-trifluoro-[1,1′-biphenyl]-4-yl)ethyl)pyrrolidine-2-carboxamide]"
5.85,8.02,"C#Cc1c(F)ccc2cc(O)cc(-c3ncc4c(N5CC6CCC(C5)N6)nc(OCCN5CCC(C)(COc6cc([C@H](C(=O)N7C[C@H](O)C[C@H]7C(=O)N[C@@H](C)c7ccc(-c8c(F)cc(F)cc8F)cc7)C(C)C)on6)CC5)nc4c3F)c12 [Example 64, (2S,4R)-1-((2R)-2-(3-((1-(2-((4-(3,8-diazabicyclo[3.2.1]octan-3-yl)-7-(8-ethynyl-7-fluoro-3-hydroxynaphthalen-1-yl)-8-fluoropyrido[4,3-d]pyrimidin-2-yl)oxy)ethyl)-4-methylpiperidin-4-yl)methoxy)isoxazol-5-yl)-3-methylbutanoyl)-4-hydroxy-N-((S)-1-(2′,4′,6′-trifluoro-[1,1′-biphenyl]-4-yl)ethyl)pyrrolidine-2-carboxamide]"
< 5.00,7.95,"C#Cc1c(F)ccc2cc(O)cc(-c3ncc4c(N5CC6CCC(C5)N6)nc(OCCN5CCC(F)(COc6cc([C@H](C(=O)N7C[C@H](O)C[C@H]7C(=O)N[C@@H](C)c7ccc(-c8c(F)cc(F)cc8F)cc7)C(C)C)on6)CC5)nc4c3F)c12 [Example 65, (2S,4R)-1-((2R)-2-(3-((1-(2-((4-(3,8-diazabicyclo[3.2.1]octan-3-yl)-7-(8-ethynyl-7-fluoro-3-hydroxynaphthalen-1-yl)-8-fluoropyrido[4,3-d]pyrimidin-2-yl)oxy)ethyl)-4-fluoropiperidin-4-yl)methoxy)isoxazol-5-yl)-3-methylbutanoyl)-4-hydroxy-N-((S)-1-(2′,4′,6′-trifluoro-[1,1′-biphenyl]-4-yl)ethyl)pyrrolidine-2-carboxamide]"
